One assay deals with NFκB. In words: NFκB reporter assay, TNFα stimulation of A549 reporter cells. The assay is classed as cell-based. The settings on record: Homo sapiens; A549 NFκB-NanoLuciferase reporter cells, 4 ng/ml TNFα, 6 hours. The text has this:
Compounds of the present invention have been tested for their capacity to inhibit NFκB.
The NFκB reporter construct was made by cloning 5 NFκB responsive elements upstream of a NanoLuciferase reporter gene flanked by AAVS1 genomic sequences.
NFκB Responsive element fused with NanoLuciferase and SV40 late Poly(A) signal was amplified from pNL3.2-NFκB-Nluc (Promega) using NFκB-NLUC-F and NFκB-NLUC-R primers and inserted by Infusion (TaKaRa) in AAVS1 SA-2A-puro-pA donor plasmid (Hockemeyer et al, Nat Biotechnol. 2009, 27, 851-7) digested by Sall. pCRISPR AAVS1-T2 expressing a guide RNA (gRNA) to target human AAVS1 (T2 target sequence) was constructed by inserting AAVS1-T2A hybridized primers in pLentiCRISPR v2-blast (Sanjana et al, Nat Methods. 2014, 11, 783-4) digested by Bsmb1.
A549 cells were transfected by the plasmids and puromycine selected for 5 days (1 μg mL-1). Then clones were obtained by limiting dilution and selected to maximize TNFα dependent NFkB-NanoLuciferase induction.
The reporter cells were seeded on a 96-well plate for overnight with DMEM including 10% FBS. Test compounds were added at varying concentrations. The cells then were treated with 4 ng/ml TNFα (Peprotech, ref E251) in DMEM+10% FBS. NanoGlo luciferase assay (Promega) was carried out 6 hours later. Luminescence was measured using a Spark 20M spectrofluorimeter (Tecan). Values were normalized to the luminescence measured in untreated cells.
On the technique in general: A reporter such as luciferase makes a cellular process visible.

In assay [1] the target is T1, CISD1 Gene Product (mitoNEET) (Homo sapiens, UniProt Q9NZ45).
T1 sequence (Q9NZ45 33-108 limits assumed): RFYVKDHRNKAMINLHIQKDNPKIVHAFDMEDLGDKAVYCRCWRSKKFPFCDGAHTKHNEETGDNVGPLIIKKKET
In words: Stability of Fe-S cluster binding of purified NEET protein (absorbance 458 nm). In kind it is biochemical. The following applies: for Residual cluster bound at end of experiment (Percentage Absorbance 458 nm at time zero): at 180 minutes, vehicle control 16%; for Residual cluster bound at end of experiment (Percentage Absorbance 458 nm at time zero) / Time (in minutes) to achieve 50% loss of bound cluster (Absorbance 458 nm): 60 μM compound; for Stabiliser of Fe—S cluster binding (time to 50% loss increased by more than 25% vs control): at the concentrations tested; for Time (in minutes) to achieve 50% loss of bound cluster (Absorbance 458 nm): pH 6, 37° C., 20 μM protein, run time 180 minutes, vehicle control 80. The protocol:
(§1) The modulator effect on the NEET proteins encoded by human CISD1, CISD2, and CISD3 genes by the compounds of the invention has been tested and is reported below. Particularly, the biochemical function of the NEET proteins is measured by the stability of Fe—S cluster binding of the purified NEET proteins.
(§2) The Fe—S cluster binding capacity of NEET proteins is known to be coordinated by four amino-acids in a stretch of 16 (three Cysteine and one Histidine). As the lability of the Fe—S cluster of NEET proteins is sensitive to the environment, cluster stability measurements are one of the measures of interactions of NEET proteins with small molecules and compounds. NEET protein/2Fe-2S cluster stability can be assessed by monitoring the decay in absorbance of its characteristic 458-nm peak (characteristic of the oxidized 2Fe-2S cluster) over time. Each NEET protein (mitoNEET, NAF-1 and Miner 2) was tested for its Fe—S binding in the absence or presence of a compound according to the invention (see table 3 below). The rate of cluster release (time in minutes to achieve 50% loss of bound Fe—S cluster) was compared for each NEET protein in the presence of one of the compounds of the invention (in a 1:3 protein:compound molar ratio) relative to each protein alone.
(§3) At pH 6, all the three NEET proteins (mitoNEET, NAF-1 and Miner 2) have a characteristic rate of loss of the bound Fe—S cluster that can be measured by the decrease of absorbance at wavelength 458 nm over time, using a spectrophotometer. Thus, Bis-Tris buffer (100 mM Bis-Tris pH6, 100 mM Nacl) was used at pH 6 to dilute either DMSO (Blank sample: Bis-Tris Buffer pH 6, 66 μM DMSO), DMSO and one of the three NEET proteins (Control sample: Bis-Tris Buffer pH 6, 66 μM DMSO, 20 μM purified NEET protein) or DMSO, one of the three NEET proteins and a compound of the invention (Test sample: Bis-Tris Buffer pH 6, 66 μM DMSO, 20 μM purified NEET protein, 60 μM compound of the invention).
(§4) A reaction mix containing DMSO diluted in the Bis-Tris Buffer with or without a compound of the invention was prepared. The purified NEET protein was the last component added to the reaction mix which was then aliquoted into 4 replicates in 96 wells plates. The absorbance at wavelength 458 nm was taken at 5 minutes intervals at 37° C. with a spectrofluorimeter. The assay run time for CISD2 gene product (NAF-1) was 500 minutes and 180 minutes for both the CISD 1 gene product (mitoNEET) and the CISD3 gene product (Miner 2).
(§5) In addition to time monitoring, residual bound Fe—S cluster to NEET protein was measured at the final point of the spectrometry assay for each Test sample and compared to the Control sample data (in parenthesis table 3). This residual binding is measured by the differential percentage between the absorbance 458 nm at time zero and the absorbance 458 nm at the end of the experiment (i.e. respectively 500 or 180 minutes as described hereabove), showing the percentage of NEET protein still able to bind Fe—S cluster.
(§6) Analysis of the absorbance enables the time for which 50% loss of bound Fe—S cluster is reached (i.e. a 50% absorbance decrease at 458 nm) for each Test sample and each Control sample (in parenthesis table 3) to be determined. The data are then compared to determine whether the compound of the invention stabilizes or destabilizes the NEET protein/Fe—S cluster binding.
(§7) Stabilisers of Fe—S cluster binding by the NEET proteins slow the release of bound Fe—S (i.e. increase the time needed to reach 50% Fe—S cluster bound loss by more than 25% for the Test sample compared to the Control sample). As illustrated by table 3, at the concentrations tested, stabilisers of CISD1 Gene Product (mitoNEET) are the compounds #9, #18, #26, #2, #1, and #42. Stabilisers of CISD2 Gene Product (NAF-1) are the compounds #2, #1, and #40. Stabilisers of CISD3 Gene Product (Miner2) are the compounds #9, #18, #26, #2, #1, and #42.

Assay [2] has as its target T2, CISD2 Gene Product (NAF-1) (Homo sapiens, UniProt Q8N5K1).
T2 sequence (Q8N5K1 57-135 limits assumed): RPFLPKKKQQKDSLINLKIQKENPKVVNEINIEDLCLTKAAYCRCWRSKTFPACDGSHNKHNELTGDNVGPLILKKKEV
The description is as above. The assay is classed as biochemical. The following applies: 60 μM compound; for Residual cluster bound at end of experiment (Percentage Absorbance 458 nm at time zero): at 500 minutes, vehicle control 3%; for Time (in minutes) to achieve 50% loss of bound cluster (Absorbance 458 nm): pH 6, 37° C., 20 μM protein, run time 500 minutes, vehicle control 310. The protocol: as §1, §2, §3, §4, §5, §6, §7

Assay [3] has as its target T3, CISD3 Gene Product (Miner2) (Homo sapiens, UniProt P0C7P0).
T3 sequence (P0C7P0 15-127): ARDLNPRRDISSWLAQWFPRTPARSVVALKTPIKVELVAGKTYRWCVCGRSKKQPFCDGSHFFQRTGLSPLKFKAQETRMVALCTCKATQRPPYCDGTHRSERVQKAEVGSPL
The description is as above. In kind it is biochemical. The settings on record: for Residual cluster bound at end of experiment (Percentage Absorbance 458 nm at time zero): CISD3 gene product, at 180 minutes, vehicle control (DMSO) 11%; for Residual cluster bound at end of experiment (Percentage Absorbance 458 nm at time zero) / Time (in minutes) to achieve 50% loss of bound cluster (Absorbance 458 nm): 60 μM compound; for Stabiliser of Fe—S cluster binding (time to 50% loss increased by more than 25% vs control) / Time (in minutes) to achieve 50% loss of bound cluster (Absorbance 458 nm): Miner2; for Stabiliser of Fe—S cluster binding (time to 50% loss increased by more than 25% vs control): at the concentrations tested; for Time (in minutes) to achieve 50% loss of bound cluster (Absorbance 458 nm): pH 6, 37° C., 20 μM protein, run time 180 minutes, vehicle control 60. The protocol: as §1, §2, §3, §4, §5, §6, §7

Assay [4] concerns H1N1 (influenza A/New Caledonia/20/99). In words: Antiviral effect on A549 cells infected with H1N1. The settings on record: Influenza A virus, MOI 0.1, 48 h post-infection, MUNANA neuraminidase readout. The assay is classed as cell-based, H1N1 A/New Caledonia/20/99 virus. The procedure, abridged: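 A549 cells dosed with test compounds over a concentration range and infected at once with clinical isolate H1N1 A/New Caledonia/20/99 (MOI 0.1) in DMEM with […] TPCK trypsin, 37 °C. At 48 h, supernatant neuraminidase activity measured with MUNANA substrate (1 h, 37 °C); 4-MU fluorescence at ex 365/em 450 nm.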

`O=C(Nc1scc(C2CC3CCC2C3)c1C(=O)O)c1ccccc1` (centres unmarked) [Compound #9, 2-Benzamido-4-norbornan-2-yl-thiophene-3-carboxylic acid]: the 50% effective concentration (EC50) in the assay with NFκB is 1100 nM. In assay [1], the “Residual cluster bound at end of experiment (Percentage Absorbance 458 nm at time zero)” value is given as 20% (16%), the “Stabiliser of Fe—S cluster binding (time to 50% loss increased by more than 25% vs control)” value is “stabilisers” and the “Time (in minutes) to achieve 50% loss of bound cluster (Absorbance 458 nm)” value is 100 (80) minutes. Moreover, in assay [2], the “Residual cluster bound at end of experiment (Percentage Absorbance 458 nm at time zero)” value was 17% (3%) and the “Time (in minutes) to achieve 50% loss of bound cluster (Absorbance 458 nm)” value is on record as 370 (310) minutes. For the same molecule, in assay [3], the “Residual cluster bound at end of experiment (Percentage Absorbance 458 nm at time zero)” value is given as 57% (11%), the “Stabiliser of Fe—S cluster binding (time to 50% loss increased by more than 25% vs control)” value is “Stabilisers” and the “Time (in minutes) to achieve 50% loss of bound cluster (Absorbance 458 nm)” value is recorded as “during 180 minutes”. The molecule further showed an IC50 in assay [4] of 210 nM.

The molecule `O=C(Nc1sc(Cl)c(C2CCCC2)c1C(=O)O)c1ccccc1` [Compound #18, 2-Benzamido-5-chloro-4-cyclopentyl-thiophene-3-carboxylic acid] had an EC50 in the assay with NFκB of 1100 nM. For the same molecule, in assay [1], the “Residual cluster bound at end of experiment (Percentage Absorbance 458 nm at time zero)” value is recorded as 52% (16%), the “Stabiliser of Fe—S cluster binding (time to 50% loss increased by more than 25% vs control)” value is “stabilisers” and the “Time (in minutes) to achieve 50% loss of bound cluster (Absorbance 458 nm)” value is given as “during 180 minutes”. Moreover, in assay [2], the “Residual cluster bound at end of experiment (Percentage Absorbance 458 nm at time zero)” value is 38% (3%) and the “Time (in minutes) to achieve 50% loss of bound cluster (Absorbance 458 nm)” value is on record as 240 (310) minutes. Also, in assay [3], the “Residual cluster bound at end of experiment (Percentage Absorbance 458 nm at time zero)” value is 69% (11%), the “Stabiliser of Fe—S cluster binding (time to 50% loss increased by more than 25% vs control)” value was “Stabilisers” and the “Time (in minutes) to achieve 50% loss of bound cluster (Absorbance 458 nm)” value is given as “during 180 minutes”. Moreover, in assay [4], the 50% inhibitory concentration (IC50) was determined as 64.8 nM.

In general, EC50 refers to the midpoint of the concentration-response curve. Low values mean greater potency, high ones weaker potency. The IC50 is the concentration at which inhibition is half-maximal. A lower IC50 goes with greater potency.

Source of the values: US11840527B2, “Non-fused thiophene derivatives and their uses” (ENYO PHARMA, priority 2018, dated 2023).
